The NIST ThermoML archive (doi:10.1021/je800158z)

Legend:
[1] = 81.5 kPa, Liquid
[2] = xn = mol fraction of the nth substance listed; conditions: 81.5 kPa, Liquid

CCCO [propan-1-ol]
[1]
Conditions | mass density [kg/m3]
293.15 K | 803.59
303.15 K | 795.53
313.15 K | 787.38
323.15 K | 778.92

CCCO [propan-1-ol] + O
mass density [kg/m3], [2]
Conditions | 293.15 K | 303.15 K | 313.15 K | 323.15 K
x1 = 0.0401 | 980.98 | 976.93 | 972.23 | 966.91
x1 = 0.1202 | 947.94 | 941.35 | 934.48 | 927.31
x1 = 0.2 | 918.86 | 911.37 | 903.85 | 896.05
x1 = 0.2798 | 895.6 | 887.91 | 879.98 | 871.78
x1 = 0.3599 | 877.53 | 869.57 | 861.38 | 852.93
x1 = 0.4399 | 863 | 854.86 | 846.49 | 837.86
x1 = 0.5197 | 851.12 | 842.87 | 834.37 | 825.64
x1 = 0.5986 | 840.82 | 832.48 | 823.92 | 815.16
x1 = 0.6792 | 831.69 | 823.34 | 814.76 | 805.95
x1 = 0.7485 | 824.84 | 816.47 | 807.91 | 799.13
x1 = 0.8383 | 816.74 | 808.45 | 799.96 | 791.25
x1 = 0.9052 | 811.17 | 802.94 | 794.55 | 785.94
x1 = 1 | 803.59 | 795.53 | 787.38 | 778.92

CC(C)O [propan-2-ol]
[1]
Conditions | mass density [kg/m3]
293.15 K | 785.1
303.15 K | 776.63
313.15 K | 767.84
323.15 K | 758.68

CC(C)O [propan-2-ol] + O
mass density [kg/m3], [2]
Conditions | 293.15 K | 303.15 K | 313.15 K | 323.15 K
x1 = 0.0399 | 979.61 | 976 | 971.52 | 966.2
x1 = 0.1197 | 948.88 | 941.64 | 934.18 | 926.48
x1 = 0.2017 | 916.63 | 908.64 | 900.42 | 891.98
x1 = 0.28 | 891.87 | 883.56 | 875.01 | 866.23
x1 = 0.359 | 871.15 | 862.65 | 853.89 | 844.85
x1 = 0.4384 | 854.11 | 845.46 | 836.52 | 827.31
x1 = 0.5204 | 839.36 | 830.58 | 821.54 | 812.2
x1 = 0.5995 | 827.56 | 818.72 | 809.6 | 800.16
x1 = 0.6801 | 817.14 | 808.26 | 799.08 | 789.6
x1 = 0.7552 | 808.56 | 799.67 | 790.48 | 780.98
x1 = 0.8403 | 799.95 | 791.1 | 781.97 | 772.47
x1 = 0.9225 | 792.03 | 783.34 | 774.33 | 764.97
x1 = 1 | 785.1 | 776.63 | 767.84 | 758.68

O [water] + CC(C)O
Conditions | mass density [kg/m3]
[2], 323.15 K, x2 = 0 | 988.03

O [water] + CCCO
Conditions | mass density [kg/m3]
[2], 323.15 K, x2 = 0 | 988.03
